In patent US7563791B2, “Pyrrolotriazine derivatives useful for treating hyper-proliferative disorders and diseases associated with angiogenesis” (Bayer Pharmaceuticals Corporation, priority 2004, dated 2009):

How the values were obtained:
Assay type in all cases: cell-based
[1] = test system: VEGF stimulated Phospho-ERK in HUVEC; test: Growth factor stimulated p-ERK assay in HUVECs (VEGF stimulation, ERK1/2 Bioplex); settings: Homo sapiens, @ 100 nM, compound 2 hrs, then 50 ng/ml VEGF 10 min
How it was run: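 HUVECs in serum-free RPMI 1640/0.1% BSA pretreated with compound 2 hrs, then stimulated 10 min with 50 ng/ml VEGF (or bFGF). Lysate phospho-ERK1/2 quantified by bead-based Bio-Plex immunoassay on Luminex.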

[2] = test system: histone 3 phosphorylation in colon carcinoma (HCT116); test: p-Histone3 assay: inhibition of histone 3 phosphorylation in HCT116; settings: Homo sapiens, HCT-116, 24 h, HCT116, 24 hours compound treatment
Protocol: Compounds were assayed for the inhibition of histone 3 phosphorylation in colon carcinoma (HCT116). Briefly, 20,000 cells/well were seeded in a 96-well black-walled, poly-d-lysine plates in RPMI+10% FBS and incubated at 37° C. in 5% CO2 overnight. The following day, the cells were treated with compounds for 24 hours at 37° C. Following compound treatment; plates were centrifuged at 1000 rpm for 2 minutes and washed twice with 100 μl of cold sterile TBS. Cells were then fixed with cold 3.7% formaldehyde in TBS (4° C. for 1 hour) and then permeabolized with 0.1% Triton-X-100 in TBS (room temperature for 30 minutes). Plates were then washed with of 0.25% BSA-TBS and blocked with BSA solution for 1 hour at room temperature while shaking. The supernatant was removed and replaced with diluted primary antibody (anti-phospho-histone 3, serine 10, Cell Signaling) at 1:250 in 0.25% BSA-TBS and incubated overnight at 4° C. The plates were washed and treated with diluted secondary antibody (anti-rabbit Eu-labeled) at 1:10000 in 0.25% BSA-TBS (room temperature for 1 hour). The antibody solution was removed from each well and washed eight times. The wash buffer was replaced with 50 μl pre-warmed enhancement solution and mixed on the orbital shaker for 10 minutes. Fluorescence was detected with a Victor V Fluorescence Detector. The data are expressed as percent inhibition: % inhibition=100−((Signal with inhibitor-background)/(Signal without inhibitor-background))×100.

HCT116 cells = test: Tumor cell proliferation (Alamar Blue), HCT116; settings: Homo sapiens, HCT-116, 72 h
How it was run: (§1)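 Cells seeded at 3.0×10^3/well in RPMI with 10% FBS for 16 h, then treated with compound (added medium held 40 μM to 18 nM compound, 0.4% DMSO) for 72 h at 37 °C, 5% CO2. Viability by Alamar Blue, 3 h, fluorescence 544/590 nm. IC50 by linear regression of log concentration versus percent inhibition.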

MDA-MB-231 cells = test: Tumor cell proliferation (Alamar Blue), MDA-MB-231; settings: Homo sapiens, MDA-MB-231, 72 h
How it was run: as §1

IC50 [2]: > 0.5 µM
IC50 ([2]; bound given in μM): < 1 µM
IC50 (HCT116 cells): > 0.5 µM
IC50 (HCT116 cells; bounds given in μM): < 1.5 µM
IC50 (MDA-MB-231 cells): > 0.5 µM
IC50 (MDA-MB-231 cells; bounds given in μM): < 1.5 µM
Structure (SMILES): CNC(=O)c1cn2ncnc(N)c2c1-c1ccc(NC(=O)Nc2cc(C(F)(F)F)ccc2F)cc1 [Example 59, 4-amino-5-{4-[({[2-fluoro-5-(trifluoromethyl)phenyl]amino}carbonyl)amino]phenyl}-N-methylpyrrolo[2,1-f][1,2,4]triazine-6-carboxamide]
inhibition at 0.1 µM [1]: > 50%
